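Compound exposure: 48 hours, 5 concentrations, 96-well plates. The concentration for 50% growth inhibition is given as GI50.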 Activity calls are given as the source filed them. No stated cut-off is given here; in the data, active = GI50 up to about 1.1 µM and inactive = higher.
Legend:
Assay in all cases: DTP human tumour cell line panel, 48 h
NCI-H226 = system: NCI-H226
SK-MEL-2 = system: SK-MEL-2
KM12 = system: KM12
SNB-75 = system: SNB-75
OVCAR-4 = system: OVCAR-4
HOP-62 = system: HOP-62
HCC 2998 = system: HCC 2998
HT-29 = system: HT-29
RPMI-8226 = system: RPMI-8226
K562 = system: K562
NCI-H23 = system: NCI-H23
UO-31 = system: UO-31
HL-60 = system: HL-60
SF-539 = system: SF-539
786-0 = system: 786-0
SW-620 = system: SW-620
DLD-1 = system: DLD-1
COLO 205 = system: COLO 205
NCI-H522 = system: NCI-H522
SF-268 = system: SF-268
OVCAR-5 = system: OVCAR-5
UACC-257 = system: UACC-257
MOLT-4 = system: MOLT-4
HOP-18 = system: HOP-18
XF498 = system: XF498
EKVX = system: EKVX
SK-MEL-5 = system: SK-MEL-5
OVCAR-8 = system: OVCAR-8
A549 = system: A549
M14 = system: M14
DMS-114 = system: DMS-114
KM-20L2 = system: KM-20L2
SK-OV-3 = system: SK-OV-3
TK-10 = system: TK-10
ACHN = system: ACHN
HCT-15 = system: HCT-15
IGROV-1 = system: IGROV-1
CCRF-CEM = system: CCRF-CEM
DMS-273 = system: DMS-273
SK-MEL-28 = system: SK-MEL-28
SF-295 = system: SF-295
RXF 393 = system: RXF 393
SN12C = system: SN12C
M19-MEL = system: M19-MEL
NCI-H460 = system: NCI-H460
LOX IMVI = system: LOX IMVI
CAKI-1 = system: CAKI-1
OVCAR-3 = system: OVCAR-3
SNB-19 = system: SNB-19
Malme-3M = system: Malme-3M
LXFL 529 = system: LXFL 529
UACC-62 = system: UACC-62
A498 = system: A498
SR = system: SR
SNB-78 = system: SNB-78
HOP-92 = system: HOP-92
HCT-116 = system: HCT-116
U-251 = system: U-251

SMILES: N#CNC1=NC(CCCC(=O)Nc2cccc([N+](=O)[O-])c2)=C(c2nc3ccccc3[nH]2)C(N)N1 (configuration not stated)
- GI50 (NCI-H226): > 100 µM (inactive)
- GI50 (SK-MEL-2): > 100 µM (inactive)
- GI50 (KM12): > 100 µM (inactive)
- GI50 (SNB-75): > 100 µM (inactive)
- GI50 (OVCAR-4): > 100 µM (inactive)
- GI50 (HOP-62): > 100 µM (inactive)
- GI50 (HCC 2998): > 100 µM (inactive)
- GI50 (HT-29): > 100 µM (inactive)
- GI50 (RPMI-8226): > 100 µM (inactive)
- GI50 (K562): > 100 µM (inactive)
- GI50 (NCI-H23): > 100 µM (inactive)
- GI50 (UO-31): > 100 µM (inactive)
- GI50 (HL-60): > 100 µM (inactive)
- GI50 (SF-539): > 100 µM (inactive)
- GI50 (786-0): > 100 µM (inactive)
- GI50 (SW-620): > 100 µM (inactive)
- GI50 (DLD-1): > 100 µM (inactive)
- GI50 (COLO 205): > 100 µM (inactive)
- GI50 (NCI-H522): > 100 µM (inactive)
- GI50 (SF-268): > 100 µM (inactive)
- GI50 (OVCAR-5): > 100 µM (inactive)
- GI50 (UACC-257): > 100 µM (inactive)
- GI50 (MOLT-4): > 100 µM (inactive)
- GI50 (HOP-18): 64.9 µM (inactive)
- GI50 (XF498): > 100 µM (inactive)
- GI50 (EKVX): > 100 µM (inactive)
- GI50 (SK-MEL-5): > 100 µM (inactive)
- GI50 (OVCAR-8): > 100 µM (inactive)
- GI50 (A549): > 100 µM (inactive)
- GI50 (M14): > 100 µM (inactive)
- GI50 (DMS-114): > 100 µM (inactive)
- GI50 (KM-20L2): > 100 µM (inactive)
- GI50 (SK-OV-3): > 100 µM (inactive)
- GI50 (TK-10): > 100 µM (inactive)
- GI50 (ACHN): > 100 µM (inactive)
- GI50 (HCT-15): 76.7 µM
- GI50 (IGROV-1): > 100 µM (inactive)
- GI50 (CCRF-CEM): > 100 µM (inactive)
- GI50 (DMS-273): > 100 µM (inactive)
- GI50 (SK-MEL-28): > 100 µM (inactive)
- GI50 (SF-295): > 100 µM (inactive)
- GI50 (RXF 393): > 100 µM (inactive)
- GI50 (SN12C): > 100 µM (inactive)
- GI50 (M19-MEL): > 100 µM (inactive)
- GI50 (NCI-H460): > 100 µM (inactive)
- GI50 (LOX IMVI): > 100 µM (inactive)
- GI50 (CAKI-1): > 100 µM (inactive)
- GI50 (OVCAR-3): > 100 µM (inactive)
- GI50 (SNB-19): > 100 µM (inactive)
- GI50 (Malme-3M): > 100 µM (inactive)
- GI50 (LXFL 529): > 100 µM (inactive)
- GI50 (UACC-62): > 100 µM (inactive)

SMILES: Cn1cnc([N+](=O)[O-])c1Sc1nc2cc([N+](=O)[O-])ccc2[nH]1
- GI50 (NCI-H226): 40.2 µM (inactive)
- GI50 (KM12): 34.9 µM (inactive)
- GI50 (SNB-75): 26.2 µM (inactive)
- GI50 (OVCAR-4): 46.6 µM (inactive)
- GI50 (HOP-62): > 100 µM (inactive)
- GI50 (HCC 2998): 15 µM (inactive)
- GI50 (HT-29): 36.4 µM (inactive)
- GI50 (RPMI-8226): 21.6 µM (inactive)
- GI50 (K562): 24.8 µM (inactive)
- GI50 (NCI-H23): 23.8 µM (inactive)
- GI50 (UO-31): 19.1 µM (inactive)
- GI50 (HL-60): 14 µM (inactive)
- GI50 (SF-539): 19.1 µM (inactive)
- GI50 (786-0): 42.4 µM (inactive)
- GI50 (A498): 29.6 µM (inactive)
- GI50 (SW-620): 27.9 µM (inactive)
- GI50 (DLD-1): 11.5 µM (inactive)
- GI50 (COLO 205): 10.4 µM (inactive)
- GI50 (SF-268): 19.9 µM (inactive)
- GI50 (OVCAR-5): 48.4 µM (inactive)
- GI50 (UACC-257): 14.3 µM (inactive)
- GI50 (MOLT-4): 14.8 µM (inactive)
- GI50 (HOP-18): 45.8 µM (inactive)
- GI50 (XF498): 10.8 µM (inactive)
- GI50 (EKVX): 10.5 µM (inactive)
- GI50 (SR): 9.29 µM (inactive)
- GI50 (SNB-78): 24.1 µM (inactive)
- GI50 (SK-MEL-5): 15.5 µM (inactive)
- GI50 (OVCAR-8): 14.7 µM (inactive)
- GI50 (A549): 29.3 µM (inactive)
- GI50 (M14): 34.4 µM (inactive)
- GI50 (KM-20L2): 24.8 µM (inactive)
- GI50 (SK-OV-3): 22 µM (inactive)
- GI50 (TK-10): 19.5 µM (inactive)
- GI50 (ACHN): 36.5 µM (inactive)
- GI50 (HOP-92): 17.3 µM (inactive)
- GI50 (HCT-15): 13.5 µM
- GI50 (IGROV-1): 19 µM (inactive)
- GI50 (CCRF-CEM): 15.4 µM (inactive)
- GI50 (DMS-273): 1.73 µM (inactive)
- GI50 (SK-MEL-28): 15.3 µM (inactive)
- GI50 (SF-295): > 100 µM (inactive)
- GI50 (RXF 393): 17.5 µM (inactive)
- GI50 (SN12C): > 10 µM (inactive)
- GI50 (HCT-116): 23.4 µM (inactive)
- GI50 (U-251): 27 µM (inactive)
- GI50 (M19-MEL): 17.4 µM (inactive)
- GI50 (NCI-H460): 36.1 µM (inactive)
- GI50 (LOX IMVI): 24.7 µM (inactive)
- GI50 (CAKI-1): 12.6 µM (inactive)
- GI50 (OVCAR-3): 37.9 µM (inactive)
- GI50 (SNB-19): 42.3 µM (inactive)
- GI50 (Malme-3M): > 10 µM (inactive)
- GI50 (LXFL 529): 12.6 µM (inactive)
- GI50 (UACC-62): 11.9 µM (inactive)

Reference: ChEMBL document CHEMBL1201862, “PubChem BioAssay data set” (2004)
